Test results published in patent US12077503B2, “Substituted cyclic amides and their use as herbicides” (FMC CORPORATION, priority 2015, dated 2024).

Experiments:
Assay type in all cases: in vivo
[1] = test system: ivy-leaved morning glory (Ipomoea hederacea); test: Test G Pre-Emergence Protocol; conditions: Ipomoea, pre-emergence, 312 h, evaluated after 13 days; for pest or weed control at 15.625 g/ha: 15.625 g ai/ha; for pest or weed control at 15.625 g/ha / pest or weed control at 250 g/ha: read-out: Morningglory, Ivy-leaved damage rating (100=total damage to plant; 0=no damage to plant); for pest or weed control at 62.5 g/ha: 62.5 g ai/ha, 100=total damage to plant, 0=no damage to plant, read-out: Morningglory, Ivy-leaved damage rating; for pest or weed control at 250 g/ha: 250 g ai/ha
Procedure, shortened: (§1)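 Under a 24/16° C day/night regime with 14 h light and 65% humidity, sown pots were sprayed after one day with compound (15.625, 62.5 or 250 g/ha; 50:50 acetone/water, 0.5% Tween 20). Damage was assessed visually 13 days later, 0 to 100.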

corn (Zea mays) [2] = test: Test G Pre-Emergence Protocol; conditions: Zea mays, pre-emergence, 312 h, evaluated after 13 days; for plant injury at 15.625 g/ha: 15.625 g ai/ha; for plant injury at 15.625 g/ha / plant injury at 250 g/ha: read-out: Corn damage rating (100=total damage to plant; 0=no damage to plant); for plant injury at 62.5 g/ha: 62.5 g ai/ha, 100=total damage to plant, 0=no damage to plant, read-out: Corn damage rating; for plant injury at 250 g/ha: 250 g ai/ha
Procedure, shortened: as §1

[3] = test system: redroot pigweed (Amaranthus retroflexus); test: Test G Pre-Emergence Protocol; conditions: Amaranthus retroflexus, pre-emergence, 312 h, evaluated after 13 days; for pest or weed control at 15.625 g/ha: 15.625 g ai/ha; for pest or weed control at 15.625 g/ha / pest or weed control at 250 g/ha: read-out: Pigweed, Redroot damage rating (100=total damage to plant; 0=no damage to plant); for pest or weed control at 62.5 g/ha: 62.5 g ai/ha, 100=total damage to plant, 0=no damage to plant, read-out: Pigweed, Redroot damage rating; for pest or weed control at 250 g/ha: 250 g ai/ha
Procedure, shortened: as §1

[4] = test system: barnyardgrass (Echinochloa crus-galli); test: Test G Pre-Emergence Protocol; conditions: Echinochloa crus-galli, pre-emergence, 312 h, evaluated after 13 days; for pest or weed control at 15.625 g/ha: 15.625 g ai/ha; for pest or weed control at 15.625 g/ha / pest or weed control at 250 g/ha: read-out: Barnyardgrass damage rating (100=total damage to plant; 0=no damage to plant); for pest or weed control at 62.5 g/ha: 62.5 g ai/ha, 100=total damage to plant, 0=no damage to plant, read-out: Barnyardgrass damage rating; for pest or weed control at 250 g/ha: 250 g ai/ha
Procedure, shortened: as §1

[5] = test system: giant foxtail (Setaria faberi); test: Test G Pre-Emergence Protocol; conditions: Setaria faberi, pre-emergence, 312 h, evaluated after 13 days; for pest or weed control at 15.625 g/ha: 15.625 g ai/ha; for pest or weed control at 15.625 g/ha / pest or weed control at 250 g/ha: read-out: Foxtail, Giant damage rating (100=total damage to plant; 0=no damage to plant); for pest or weed control at 62.5 g/ha: 62.5 g ai/ha, 100=total damage to plant, 0=no damage to plant, read-out: Foxtail, Giant damage rating; for pest or weed control at 250 g/ha: 250 g ai/ha
Procedure, shortened: as §1

[6] = test system: velvetleaf (Abutilon theophrasti); test: Test G Pre-Emergence Protocol; conditions: Abutilon theophrasti, pre-emergence, 312 h, evaluated after 13 days; for pest or weed control at 15.625 g/ha: 15.625 g ai/ha; for pest or weed control at 15.625 g/ha / pest or weed control at 250 g/ha: read-out: Velvetleaf damage rating (100=total damage to plant; 0=no damage to plant); for pest or weed control at 62.5 g/ha: 62.5 g ai/ha, 100=total damage to plant, 0=no damage to plant, read-out: Velvetleaf damage rating; for pest or weed control at 250 g/ha: 250 g ai/ha
Procedure, shortened: as §1

[7] = test system: ivy-leaved morning glory (Ipomoea hederacea); test: Test G Post-Emergence Protocol; conditions: Ipomoea, post-emergence, 312 h, read-out: Morningglory, Ivy-leaved damage rating; for pest or weed control at 15.625 g/ha: 15.625 g ai/ha, evaluated after 13 days (100=total damage to plant; 0=no damage to plant); for pest or weed control at 62.5 g/ha: 62.5 g ai/ha; for pest or weed control at 62.5 g/ha / pest or weed control at 250 g/ha: evaluated after 13 days, 100=total damage to plant, 0=no damage to plant; for pest or weed control at 250 g/ha: 250 g ai/ha
Procedure, shortened: (§2)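 Seedlings grown 8 days in soil in a glasshouse (24/16 °C day/night, 14 h light, 65% humidity) were sprayed post-emergence with compound in acetone/water 50:50 plus 0.5% Tween 20 at 15.625, 62.5 or 250 g/ha. Damage was scored after 13 days on a 0–100 scale (100 = total damage).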

corn (Zea mays) [8] = test: Test G Post-Emergence Protocol; conditions: Zea mays, post-emergence, 312 h, read-out: Corn damage rating; for plant injury at 15.625 g/ha: 15.625 g ai/ha, evaluated after 13 days (100=total damage to plant; 0=no damage to plant); for plant injury at 62.5 g/ha: 62.5 g ai/ha; for plant injury at 62.5 g/ha / plant injury at 250 g/ha: evaluated after 13 days, 100=total damage to plant, 0=no damage to plant; for plant injury at 250 g/ha: 250 g ai/ha
Procedure, shortened: as §2

[9] = test system: redroot pigweed (Amaranthus retroflexus); test: Test G Post-Emergence Protocol; conditions: Amaranthus retroflexus, post-emergence, 312 h, read-out: Pigweed, Redroot damage rating; for pest or weed control at 15.625 g/ha: 15.625 g ai/ha, evaluated after 13 days (100=total damage to plant; 0=no damage to plant); for pest or weed control at 62.5 g/ha: 62.5 g ai/ha; for pest or weed control at 62.5 g/ha / pest or weed control at 250 g/ha: evaluated after 13 days, 100=total damage to plant, 0=no damage to plant; for pest or weed control at 250 g/ha: 250 g ai/ha
Procedure, shortened: as §2

[10] = test system: barnyardgrass (Echinochloa crus-galli); test: Test G Post-Emergence Protocol; conditions: Echinochloa crus-galli, post-emergence, 312 h, read-out: Barnyardgrass damage rating; for pest or weed control at 15.625 g/ha: 15.625 g ai/ha, evaluated after 13 days (100=total damage to plant; 0=no damage to plant); for pest or weed control at 62.5 g/ha: 62.5 g ai/ha; for pest or weed control at 62.5 g/ha / pest or weed control at 250 g/ha: evaluated after 13 days, 100=total damage to plant, 0=no damage to plant; for pest or weed control at 250 g/ha: 250 g ai/ha
Procedure, shortened: as §2

[11] = test system: giant foxtail (Setaria faberi); test: Test G Post-Emergence Protocol; conditions: Setaria faberi, post-emergence, 312 h, read-out: Foxtail, Giant damage rating; for pest or weed control at 15.625 g/ha: 15.625 g ai/ha, evaluated after 13 days (100=total damage to plant; 0=no damage to plant); for pest or weed control at 62.5 g/ha: 62.5 g ai/ha
Procedure, shortened: as §2

[12] = test system: velvetleaf (Abutilon theophrasti); test: Test G Post-Emergence Protocol; conditions: Abutilon theophrasti, post-emergence, 312 h, read-out: Velvetleaf damage rating; for pest or weed control at 15.625 g/ha: 15.625 g ai/ha, evaluated after 13 days (100=total damage to plant; 0=no damage to plant); for pest or weed control at 62.5 g/ha: 62.5 g ai/ha; for pest or weed control at 62.5 g/ha / pest or weed control at 250 g/ha: evaluated after 13 days, 100=total damage to plant, 0=no damage to plant; for pest or weed control at 250 g/ha: 250 g ai/ha
Procedure, shortened: as §2

[13] = evaluated after 13 days, 100=total damage to plant, 0=no damage to plant

| SMILES | pest or weed control at 15.625 g/ha [1] | pest or weed control at 62.5 g/ha [1] | pest or weed control at 250 g/ha [1] | plant injury at 15.625 g/ha (corn (Zea mays) [2]) | plant injury at 62.5 g/ha (corn (Zea mays) [2]) | plant injury at 250 g/ha (corn (Zea mays) [2]) | pest or weed control at 15.625 g/ha [3] | pest or weed control at 62.5 g/ha [3] | pest or weed control at 250 g/ha [3] | pest or weed control at 15.625 g/ha [4] | pest or weed control at 62.5 g/ha [4] | pest or weed control at 250 g/ha [4] | pest or weed control at 15.625 g/ha [5] | pest or weed control at 62.5 g/ha [5] | pest or weed control at 250 g/ha [5] | pest or weed control at 15.625 g/ha [6] | pest or weed control at 62.5 g/ha [6] | pest or weed control at 250 g/ha [6] | pest or weed control at 15.625 g/ha [7] | pest or weed control at 62.5 g/ha [7] | other results |
| --- | --- | --- | --- | --- | --- | --- | --- | --- | --- | --- | --- | --- | --- | --- | --- | --- | --- | --- | --- | --- | --- |
| CCOc1cc([C@@H]2CN(C)C(=O)[C@H]2C(=O)Nc2cccc(F)c2C)ccc1C(F)(F)F (racemic) [Compound 1787] | 0% | 0% | 20% | 20% | 20% | 40% | 0% | 0% | 20% | 50% | 60% | 90% | 60% | 70% | 90% | 0% | 10% | 20% | 50% | 70% | pest or weed control at 250 g/ha [7]: 70%; plant injury at 15.625 g/ha (corn (Zea mays) [8]): 30%; plant injury at 62.5 g/ha (corn (Zea mays) [8]): 50%; plant injury at 250 g/ha (corn (Zea mays) [8]): 60%; pest or weed control at 15.625 g/ha [9]: 20%; pest or weed control at 62.5 g/ha [9]: 20%; pest or weed control at 250 g/ha [9]: 70%; pest or weed control at 15.625 g/ha [10]: 20%; pest or weed control at 62.5 g/ha [10]: 60%; pest or weed control at 250 g/ha [10]: 60%; pest or weed control at 15.625 g/ha [11]: 40%; pest or weed control at 62.5 g/ha [11, 13]: 70%; pest or weed control at 15.625 g/ha [12]: 20%; pest or weed control at 62.5 g/ha [12]: 20%; pest or weed control at 250 g/ha [12]: 40% |
| CN1C[C@H](c2ccc(C(F)(F)F)cc2)[C@@H](C(=O)Nc2cccnc2S(C)(=O)=O)C1=O (racemic) [Compound 1789] | 0% | 0% | 0% | 0% | 0% | 10% | 0% | 0% | 20% | 0% | 0% | 0% | 0% | 0% | 0% | 0% | 0% | 20% | 0% | 0% | pest or weed control at 250 g/ha [7]: 0%; plant injury at 15.625 g/ha (corn (Zea mays) [8]): 0%; plant injury at 62.5 g/ha (corn (Zea mays) [8]): 0%; plant injury at 250 g/ha (corn (Zea mays) [8]): 10%; pest or weed control at 15.625 g/ha [9]: 0%; pest or weed control at 62.5 g/ha [9]: 0%; pest or weed control at 250 g/ha [9]: 20%; pest or weed control at 15.625 g/ha [10]: 0%; pest or weed control at 62.5 g/ha [10]: 0%; pest or weed control at 250 g/ha [10]: 0%; pest or weed control at 15.625 g/ha [11]: 0%; pest or weed control at 62.5 g/ha [11, 13]: 0%; pest or weed control at 15.625 g/ha [12]: 0%; pest or weed control at 62.5 g/ha [12]: 0%; pest or weed control at 250 g/ha [12]: 20% |
| Cc1c(F)cccc1NC(=O)[C@@H]1C(=O)N(C)C[C@H]1c1cc(Cl)c(F)c(Cl)c1 (racemic) [Compound 1792] | 0% | 0% | 0% | 0% | 20% | 50% | 0% | 0% | 0% | 30% | 70% | 80% | 80% | 80% | 90% | 0% | 0% | 0% | 10% | 30% | pest or weed control at 250 g/ha [7]: 40%; plant injury at 15.625 g/ha (corn (Zea mays) [8]): 20%; plant injury at 62.5 g/ha (corn (Zea mays) [8]): 40%; plant injury at 250 g/ha (corn (Zea mays) [8]): 60%; pest or weed control at 15.625 g/ha [9]: 0%; pest or weed control at 62.5 g/ha [9]: 0%; pest or weed control at 250 g/ha [9]: 0%; pest or weed control at 15.625 g/ha [10]: 30%; pest or weed control at 62.5 g/ha [10]: 70%; pest or weed control at 250 g/ha [10]: 70%; pest or weed control at 15.625 g/ha [11]: 70%; pest or weed control at 62.5 g/ha [11, 13]: 80%; pest or weed control at 250 g/ha ([11]; 250 g ai/ha, evaluated after 13 days, 100=total damage to plant, 0=no damage to plant): 80%; pest or weed control at 15.625 g/ha [12]: 0%; pest or weed control at 62.5 g/ha [12]: 20%; pest or weed control at 250 g/ha [12]: 40% |
